The values below come from patent publication US20040248879A1, “Salts of tricyclic inhibitors of poly(ADP-ribose) polymerases” (Agouron Pharmaceuticals, Inc., priority 2003, published 2004).

One data set is described as follows: Water Solubility Assay. Format: physicochemical. The note with it: Milli Q water, room temperature, stirred 3 hours, HPLC; for solubility at 3 h: water, thermodynamic from solid. The method, then: The sample suspension was stirred at room temperature for 3 hours. The suspension was transferred into an eppendorf vial and centrifuged at 14000 rpm for 8 minutes. The supernant solution was then assayed by HPLC.
The suspension was stirred at room temperature for 3 hours and then centrifuged at 14000/min for 8 minutes. The supernant was diluted 10 times by Milli Q water. The final solution was then assayed by HPLC.
Accurately weigh out 2.5-3.0 mg of AG014447 reference standard into 10 ml volumetric flask, and then bring to volume with MeOH. Mix thoroughly.
Buffer: 25 mM ammonium phosphate buffer (pH 2.5)
Organic Modifier: Acetonitrile (ACN)
Column: Waters Symmetry C18, 4.6×150 mm, 5 μm;
The solubility of the sample is calculated by the equation below: […]
Where A is the peak area of the sample; As is the peak area of the standard; Cs is the concentration of the standard solution; D is the dilution factor. [drawing 2]

A further data set relates to A549 cells. As to the kind of experiment: Cytotoxicity Potentiation Assay. Particulars: test compound 0.4 μm, with topotecan, ratio of IC50 of topotecan alone to IC50 in combination. It is filed as cell-based.

Converted amounts (≈) assume the structure as drawn.

Method for A549 cells: Cytotoxicity Potentiation Assay: A549 cells (ATCC, Rockville, Md.) were seeded into 96-well cell culture plates (Falcon brand, Fisher Scientific, Pittsburgh, Pa.) 16 to 24 hours before experimental manipulation. Cells were then treated with a test compound (or a combination of test compounds where indicated) for either 3 days or 5 days, at a concentration of 0.4 μm. At the end of treatments, relative cell number was determined either by MTT assay or SRB assay. For the MTT assay, 0.2 μg/μl of MTT (3-(4,5-dimethylthiazol-2-yl)-2,5-diphenyltetrazolium bromide, Sigma Chemical Co., St. Louis, Mo.) was added to each well of a plate, and the plate was incubated in a cell-culture incubator for 4 hours. Metabolized MTT in each well was solubilized in 150 μl of DMSO (Sigma Chemical Co.) with shaking and quantified with a Wallac 1420 Victor plate reader (EG&G Wallac, Gaithersburg, Md.) at 540 nm. For the SRB assay, cells were fixed with 10% trichloroacetic acid (Sigma Chemical Co) for an hour at 4° C. […] The bound dye was measured photometrically with the Wallac Victor plate reader at 515 nm. The ratio of the OD (optical density) value of a compound-treated culture to the OD value of a mock-treated culture, expressed in percentage, was used to quantify the cytotoxicity of a compound. […] For the compounds of the invention, PF50 values were determined by testing with topotecan.

Usually solubility stands for how much of the substance goes into solution per volume. Turning to `CNCc1ccc(-c2[nH]c3cc(F)cc4c3c2CCNC4=O)cc1.O=C(O)C(O)C(O)C(=O)O` [Tartrate, 8-Fluoro-2-(4-methylaminomethyl-phenyl)-1,3,4,5-tetrahydro-azepino[5,4,3-cd]indol-6-one Tartrate], the solubility at 3 h in the data set “Water Solubility Assay” stood at 1100 µg/mL.
The Solubility is how much of the substance goes into solution per volume. Read a low Solubility as little dissolved substance. For `CNCc1ccc(-c2[nH]c3cc(F)cc4c3c2CCNC4=O)cc1` [Glucuronate, 8-Fluoro-2-(4-methylaminomethyl-phenyl)-1,3,4,5-tetrahydro-azepino[5,4,3-cd]indol-6-one Glucuronate], the Solubility in “Water Solubility Assay” came out at 89000 µg/mL (≈ 275 mM).
On to `CNCc1ccc(-c2[nH]c3cc(F)cc4c3c2CCNC4=O)cc1` [Free base, 8-fluoro-2-(4-methylaminomethyl-phenyl)-1,3,4,5-tetrahydro-azepino[5,4,3-cd]indol-6-one], for which the “Cytotoxicity Potentiation PF50” value in the data set on A549 cells turned out to be 2.4. The compound further gave a Solubility in “Water Solubility Assay” of 180 µg/mL (≈ 0.557 mM).
As for `CNCc1ccc(-c2[nH]c3cc(F)cc4c3c2CCNC4=O)cc1` [Gluconate, 8-Fluoro-2-(4-methylaminomethyl-phenyl)-1,3,4,5-tetrahydro-azepino[5,4,3-cd]indol-6-one Gluconate], the Solubility in the data set “Water Solubility Assay” is more than 128000 µg/mL.
On to `CNCc1ccc(-c2[nH]c3cc(F)cc4c3c2CCNC4=O)cc1.Cl` [Hydrochloride, 8-Fluoro-2-(4-methylaminomethyl-phenyl)-1,3,4,5-tetrahydro-azepino[5,4,3-cd]indol-6-one Hydrochloride], for which the solubility at 3 h in “Water Solubility Assay” came out at 1600 µg/mL.
On the same count and under the same terms, then `CNCc1ccc(-c2[nH]c3cc(F)cc4c3c2CCNC4=O)cc1.CS(=O)(=O)O` [Mesylate, 8-Fluoro-2-(4-methylaminomethyl-phenyl)-1,3,4,5-tetrahydro-azepino[5,4,3-cd]indol-6-one Mesylate], with 15500 µg/mL.
Compound `CNCc1ccc(-c2[nH]c3cc(F)cc4c3c2CCNC4=O)cc1` [Phosphate, 8-Fluoro-2-(4-methylaminomethyl-phenyl)-1,3,4,5-tetrahydro-azepino[5,4,3-cd]indol-6-one Phosphate] came in with a Solubility in the data set “Water Solubility Assay” (Phosphate) of 2800 µg/mL.
As to `CC(=O)O.CNCc1ccc(-c2[nH]c3cc(F)cc4c3c2CCNC4=O)cc1` [Acetate, 8-fluoro-2-(4-methylaminomethyl-phenyl)-1,3,4,5-tetrahydro-azepino[5,4,3-cd]indol-6-one Acetate], the solubility at 3 h in the data set “Water Solubility Assay” is 8800 µg/mL.
